Reference: patent publication US20050244335A1, “Methods and compositions related to increasing antitumor activity of chemotherapeutic agents” (priority 2004, published 2005)

What was measured:
CD-1 mice = assay type: in vivo; conditions: CD-1 mice
Description: Male CD-1 mice, randomly divided into multiple treatment and control groups (10 mice/group), were given DEX by subcutaneous (s.c.) injection at doses of 0.01, 0.05, 0.1, 0.3 mg/mouse/day or saline (as controls) for 5 days prior to (day −4 to 0) or after (day 0 to 4) a single intraperitoneal (i.p.) injection of carboplatin (600 mg/m^2 or 200 mg/kg) on day 0. Animals were monitored daily for activity, physical condition, body weight and 14-day survival rates.
The significance of the differences among treated groups and controls were analyzed by ANOVA.

[1] = Pharmacokinetics of carboplatin in nude mice bearing A549 xenografts; assay type: in vivo; conditions: for AUC / CL / Cmax / T1/2 / Vss: nude mice bearing A549 xenografts, carboplatin 60 mg/kg iv
Description: Pharmacokinetics and Tissue Distribution of Carboplatin. Pharmacokinetic studies were carried out using a protocol similar to that previously described (26) using metabolism cages. Female nude mice bearing human colon cancer LS174T xenografts or human lung cancer A549 xenografts were used (3 animals for each time point). Animals were pre-treated with DEX (s.c., 0.1 mg/day/mouse for 5 days) or saline (as controls) and, at 1 hr after the fifth dose of DEX, were given a single intravenously (i.v.) bolus administration of carboplatin (60 mg/kg) via a tail vein. At various times (5, 15, and 30 min, 1, 2, 4, 8, and 24 hr after carboplatin dosing), blood samples were collected in heparinized tubes and tissue samples removed. Plasma was separated by centrifugation at 20,000 g for 5 min. Tissues including liver, kidneys, spleen, and tumor were taken at various times and immediately blotted on Whatman No. 1 filter paper, trimmed of extraneous fat or connective tissue, weighed, and homogenized in 0.9% NaCl physiological saline (5 mL per gram of wet weight). The resultant homogenates were stored at −70° C. until further analysis. Bone marrow cells were harvested by flushing the femurs with sterile physiological saline as reported previously (30). Briefly, after removing the distal and proximal ends of femur, each end of the bone was punctured with a 20-gauge needle fitted with a 5 mL syringe containing 1 mL of sterile physiological saline (pre-weighed). The bone was then held with a forceps over a test tube and the needle was inserted into the hole in the proximal end. The 1 mL saline was flushed through the bone into the tube by applying gentle, steady pressure to the plunger. The syringe was then filled with 5 ml of air that was gently forced through the bone to remove the remaining saline and bone marrow in the shaft. The resultant bone marrow cell suspension was weighed and lysed by sonicating 5 times for periods of 10 sec. Following centrifugation at 20,000 g for 30 min, the supernatant was removed and stored at −70° C. until further analysis.
HPLC Analysis of Carboplatin in Plasma and Tissues. Carboplatin in biological samples was analyzed by an analytical procedure involving micro-filtration and reversed-phase HPLC (31). 200 μL of plasma or tissue homogenates or bone marrow suspension was added to the reservoir of a Centrifree™ micropartition system. The latter was capped and centrifuged at 2,000 g for 5 min. All filtrates were transferred into a new micro centrifuge tube and 6 μL of the filtrates was injected onto the HPLC column. The HPLC system consisted of a Hewlett Packard 1050 ChemStation with a UV detector (Agilent 1050 series). Determination of Carboplatin was achieved using a LiChrosorb™ diol (10 μm, 250×4.6 mm) analytical column with a LiChroCART 100 RP-18 guard column. The mobile phase for plasma was composed of 98:2 acetonitrile:H2O (vol/vol) and 89:11 acetonitrile: 0.015% H3PO4 (vol/vol) for urine and tissue samples. The flow rates were 2 mL/min (for plasma) and 1.1 mL/min (for urine and tissue samples). The column elute was monitored by UV at 229 nm. Quantitation of plasma or tissue carboplatin was carried out by using an external standard curve (0-4,000.0 μg/mL) that was freshly prepared on a daily basis. Linear regression and correlation analysis were carried out to establish the standard peak-area/concentration curves for carboplatin.
Data and Statistical Analysis.

**Q.** Which results are given for `N.N.O=C([O-])C1(C(=O)[O-])CCC1.[Pt+2]` [carboplatin]?
**A.** survival rate (CD-1 mice; carboplatin 600 mg/m^2 (200 mg/kg) i.p. alone (carboplatin controls), 14-day): 10%; mortality rate (CD-1 mice; single i.p. dose of carboplatin alone 600 mg/m^2 (200 mg/kg)): 90%; increase in tumor AUC by DEX pretreatment ([1]; A549 nude mice): 50%; AUC ([1]; bone marrow, DEX (+)): 517210 ng·h/mL; CL ([1]; bone marrow, DEX (+)): 0.01 mL/g/h; Cmax ([1]; bone marrow, DEX (+)): 27290 ng/mL; T1/2 ([1]; bone marrow, DEX (+)): 30 min; Vss ([1]; bone marrow, DEX (+)): 2.72 mL/g; AUC ([1]; bone marrow, DEX (−)): 641040 ng·h/mL; CL ([1]; bone marrow, DEX (−)): 0.01 mL/g/h; Cmax ([1]; bone marrow, DEX (−)): 32580 ng/mL; T1/2 ([1]; bone marrow, DEX (−)): 30 min; Vss ([1]; bone marrow, DEX (−)): 1.97 mL/g; AUC ([1]; liver, DEX (+)): 21680 ng·h/mL; CL ([1]; liver, DEX (+)): 4.79 mL/g/h; Cmax ([1]; liver, DEX (+)): 5910 ng/mL; T1/2 ([1]; liver, DEX (+)): 60 min; Vss ([1]; liver, DEX (+)): 9.05 mL/g; AUC ([1]; liver, DEX (−)): 26320 ng·h/mL; CL ([1]; liver, DEX (−)): 3.99 mL/g/h; Cmax ([1]; liver, DEX (−)): 7000 ng/mL; T1/2 ([1]; liver, DEX (−)): 60 min; Vss ([1]; liver, DEX (−)): 8.31 mL/g; AUC ([1]; plasma, DEX (+)): 66080 ng·h/mL; CL ([1]; plasma, DEX (+)): 0.91 mL/g/h; Cmax ([1]; plasma, DEX (+)): 411890 ng/mL; T1/2 ([1]; plasma, DEX (+)): 6.6 min; Vss ([1]; plasma, DEX (+)): 0.15 mL/g; AUC ([1]; plasma, DEX (−)): 55220 ng·h/mL; CL ([1]; plasma, DEX (−)): 1.09 mL/g/h; Cmax ([1]; plasma, DEX (−)): 357340 ng/mL; T1/2 ([1]; plasma, DEX (−)): 6.6 min; Vss ([1]; plasma, DEX (−)): 0.17 mL/g; AUC ([1]; spleen, DEX (+)): 75590 ng·h/mL; CL ([1]; spleen, DEX (+)): 0.79 mL/g/h; Cmax ([1]; spleen, DEX (+)): 482140 ng/mL; T1/2 ([1]; spleen, DEX (+)): 6.6 min; Vss ([1]; spleen, DEX (+)): 0.12 mL/g; AUC ([1]; spleen, DEX (−)): 359440 ng·h/mL; CL ([1]; spleen, DEX (−)): 0.17 mL/g/h; Cmax ([1]; spleen, DEX (−)): 341990 ng/mL; T1/2 ([1]; spleen, DEX (−)): 43.8 min; Vss ([1]; spleen, DEX (−)): 0.18 mL/g; AUC ([1]; tumor, DEX (+)): 15480 ng·h/mL; CL ([1]; tumor, DEX (+)): 3.88 mL/g/h; Cmax ([1]; tumor, DEX (+)): 64090 ng/mL; T1/2 ([1]; tumor, DEX (+)): 10.2 min; Vss ([1]; tumor, DEX (+)): 0.94 mL/g; AUC ([1]; tumor, DEX (−)): 10160 ng·h/mL; CL ([1]; tumor, DEX (−)): 5.90 mL/g/h; Cmax ([1]; tumor, DEX (−)): 32150 ng/mL; T1/2 ([1]; tumor, DEX (−)): 13.2 min; Vss ([1]; tumor, DEX (−)): 1.87 mL/g
